Laboratory results from patent US9273029B2, “Pyridine-and pyrazine derivatives” (Merck Patent GmbH, priority 2011, dated 2016).

How the values were obtained:
IKKε = IKKε (Homo sapiens (Human), UniProt Q14164); test: IKKε kinase assay (384-well Flashplate); format: biochemical; settings: 10 μM ATP, 2 hours at 30° C.; read-out: IKKε enzyme assay IC50
Experimental: IKKε—Kinase Assay (IKKepsilon)
The kinase assay is performed either as 384-well Flashplate assay (for e.g. Topcount measurement). 1 nM IKKε, 800 nM biotinylated IκBα(19-42) peptide (Biotin-C6-C6-[…]) SEQ ID NO: 1 and 10 μM ATP (spiked with 0.3 μCi ^33P-ATP/well) are incubated in a total volume of 50 μl (10 mM MOPS, 10 mM Mg-acetat, 0.1 mM EGTA, 1 mM Dithiothreitol,0.02% Brij35, 0.1% BSA, 0.1% BioStab, pH 7.5) with or without test compound for 2 hours at 30° C. The reaction is stopped with 25 μl 200 mM EDTA. After 30 Min at room temperature the liquid is removed and each well washed thrice with 100 μl 0.9% sodium chloride solution. Non-specific reaction is determined in presence of 3 μM MSC2119074 (BX-795). Radioactivity is measured with Topcount (PerkinElmer). Results (e.g. IC50-values) are calculated with program tools provided by the IT-department (e.g. AssayExplorer, Symyx).

[1] = target: TANK binding kinase (TBK1) (Homo sapiens (Human), UniProt Q9UHD2); test: TBK1 enzyme assay (384-well Flashplate kinase assay); format: biochemical; settings: 10 μM ATP, 120 Min at 30° C.
Experimental: The kinase assay is performed as 384-well Flashplate assay (for e.g. Topcount measurement. 0.6 nM TANK binding kinase (TBK1), 800 nM biotinylated MELK-derived peptide (Biotin-Ah-Ah-[…]) SEQ ID NO: 2 and 10 μM ATP (spiked with 0.25 μCi ^33P-ATP/well) are incubated in a total volume of 50 μl (10 mM MOPS, 10 mM Mg-acetat, 0.1 mM EGTA, 1 mM DTT, 0.02% Brij35, 0.1% BSA, pH 7.5) with or without test compound for 120 Min at 30° C. The reaction is stopped with 25 μl 200 mM EDTA. After 30 Min at room temperature the liquid is removed and each well washed thrice with 100 μl 0.9% sodium chloride solution. Nonspecific reaction is determined in presence of 100 nM Staurosporine. Radioactivity is measured in a Topcount (PerkinElmer). Results (e.g. IC50-values) are calculated with program tools provided by the IT-department (e.g. AssayExplorer, Symyx).

Chain of IKKε (Q14164 whole entry): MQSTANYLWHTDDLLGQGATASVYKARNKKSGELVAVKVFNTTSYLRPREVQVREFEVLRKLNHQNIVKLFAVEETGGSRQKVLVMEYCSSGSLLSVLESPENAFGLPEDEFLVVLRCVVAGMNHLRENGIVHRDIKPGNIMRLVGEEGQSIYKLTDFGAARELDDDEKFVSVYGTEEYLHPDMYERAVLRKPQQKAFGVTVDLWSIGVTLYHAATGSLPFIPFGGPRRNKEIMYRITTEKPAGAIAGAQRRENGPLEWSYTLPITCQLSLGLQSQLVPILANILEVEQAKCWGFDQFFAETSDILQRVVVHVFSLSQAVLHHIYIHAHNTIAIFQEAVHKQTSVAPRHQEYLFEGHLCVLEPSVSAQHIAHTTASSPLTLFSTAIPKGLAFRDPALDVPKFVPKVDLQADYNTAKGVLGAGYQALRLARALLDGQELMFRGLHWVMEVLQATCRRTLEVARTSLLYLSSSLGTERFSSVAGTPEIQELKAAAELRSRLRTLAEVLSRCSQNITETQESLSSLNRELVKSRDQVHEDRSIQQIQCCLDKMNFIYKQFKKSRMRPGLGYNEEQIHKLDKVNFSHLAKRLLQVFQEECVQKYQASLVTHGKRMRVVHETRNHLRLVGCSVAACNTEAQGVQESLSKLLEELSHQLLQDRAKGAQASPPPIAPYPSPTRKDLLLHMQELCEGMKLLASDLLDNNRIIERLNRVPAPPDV
Chain of TANK binding kinase (TBK1) (Q9UHD2 whole entry): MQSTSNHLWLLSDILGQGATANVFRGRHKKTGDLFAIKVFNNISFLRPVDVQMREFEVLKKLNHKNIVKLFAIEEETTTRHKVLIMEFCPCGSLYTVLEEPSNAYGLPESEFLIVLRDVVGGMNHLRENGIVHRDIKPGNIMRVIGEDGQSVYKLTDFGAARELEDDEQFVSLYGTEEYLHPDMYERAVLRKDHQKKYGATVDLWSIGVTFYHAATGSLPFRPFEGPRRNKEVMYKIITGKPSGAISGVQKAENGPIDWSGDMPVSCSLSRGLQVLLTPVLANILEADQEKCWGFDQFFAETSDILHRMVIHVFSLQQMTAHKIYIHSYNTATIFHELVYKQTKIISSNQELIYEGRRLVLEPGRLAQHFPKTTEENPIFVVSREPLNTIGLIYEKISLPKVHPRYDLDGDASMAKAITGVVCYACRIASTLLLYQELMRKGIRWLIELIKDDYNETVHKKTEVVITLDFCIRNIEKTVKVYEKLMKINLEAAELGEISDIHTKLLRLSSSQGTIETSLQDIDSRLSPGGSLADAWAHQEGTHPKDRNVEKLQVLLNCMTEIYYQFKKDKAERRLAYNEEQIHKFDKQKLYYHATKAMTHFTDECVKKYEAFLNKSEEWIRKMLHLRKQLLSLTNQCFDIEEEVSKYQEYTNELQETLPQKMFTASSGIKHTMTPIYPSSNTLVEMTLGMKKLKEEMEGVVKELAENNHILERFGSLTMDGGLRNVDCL

| Structure (SMILES) | IC50 (IKKε) [nM] | IC50 [1] [nM] |
| --- | --- | --- |
| Nc1ncc(-c2ccc(S(N)(=O)=O)cc2)cc1C(=O)Nc1ccncc1 [Compound A7, 2-Amino-N-pyridin-4-yl-5-(4-sulfamoyl-phenyl)-nicotinamide] | 1800 | 150 |
| Nc1ncc(-c2cnn(CC3OCCO3)c2)nc1C(=O)Nc1ccncc1 [Compound A12, 3-Amino-6-(1-[1,3]dioxolan-2-ylmethyl-1H-pyrazol-4-yl)-pyrazine-2-carboxylic acid pyridin-4-ylamide] | 1000 | 8300 |
| Nc1ncc(-c2ccc(CN3CCCCC3)s2)nc1C(=O)Nc1ccncc1 [Compound A13, 3-Amino-6-(5-piperidin-1-ylmethyl-thiophen-2-yl)-pyrazine-2-carboxylic acid pyridin-4-ylamide] | 1900 | 4000 |
| Nc1ncc(-c2cccc(-n3cccn3)c2)cc1C(=O)Nc1ccnnc1 [Compound A18, 2-Amino-5-(3-pyrazol-1-yl-phenyl)-N-pyridazin-4-yl-nicotinamide] | 640 | 790 |
| Cc1cnccc1NC(=O)c1cc(-c2ccc(-n3cccn3)cc2)cnc1N [Compound A19, 2-Amino-N-(3-methyl-pyridin-4-yl)-5-(4-pyrazol-1-yl-phenyl)-nicotinamide] | 2800 | 1000 |
| COCCn1cc(-c2cnc(N)c(C(=O)Nc3ccnc(C)c3)c2)cn1 [Compound A20, 2-Amino-5-[1-(2-methoxy-ethyl)-1H-pyrazol-4-yl]-N-(2-methyl-pyridine-4-yl)-nicotinamide] | 610 | 1200 |
| COCCn1cc(-c2cnc(N)c(C(=O)Nc3ccncc3C)c2)cn1 [Compound A22, 2-Amino-5-[1-(2-methoxy-ethyl)-1H-pyrazol-4-yl]-N-(3-methyl-pyridin-4-yl)-nicotinamide] | 2400 | 690 |
| Cc1ccc(-c2cccc(-c3cnc(N)c(C(=O)Nc4ccncc4)c3)c2)cc1 [Compound A23, 2-Amino-5-(4′-methyl-biphenyl-3-yl)-N-pyridin-4-yl-nicotinamide] | 2200 | 7400 |
| COCCn1cc(-c2cnc(N)c(C(=O)Nc3ccnnc3)c2)cn1 [Compound A24, 2-Amino-5-[1-(2-methoxy-ethyl)-1H-pyrazol-4-yl]-N-pyridazin-4-yl-nicotinamide] | 890 | 1200 |
| NC(=O)Cn1cc(-c2cnc(N)c(C(=O)Nc3ccncc3)c2)cn1 [Compound A25, 2-Amino-5-(1-carbamoylmethyl-1H-pyrazol-4-yl)-N-pyridin-4-yl-nicotinamide] | 530 | 360 |
| COCCn1cc(-c2cnc(N)c(C(=O)Nc3ccnc4ccoc34)c2)cn1 [Compound A28, 2-Amino-N-furo[3,2-b]pyridin-7-yl-5-[1-(2-methoxy-ethyl)-1H-pyrazol-4-yl]-nicotinamide] | 2900 | 1200 |
| COC(=O)c1ccc(-c2cnc(N)c(C(=O)Nc3ccncc3)c2)cc1 [Compound A30, 4-[6-Amino-5-(pyridin-4-ylcarbamoyl)-pyridin-3-yl]-benzoic acid methyl ester] | 1900 | 1600 |
| Nc1ncc(-c2ccc(C(=O)O)cc2)cc1C(=O)Nc1ccncc1 [Compound A31, 4-[6-Amino-5-(pyridin-4-ylcarbamoyl)-pyridin-3-yl]-benzoic acid] | 990 | 400 |
| Nc1ncc(-c2ccc(CCC(=O)O)cc2)cc1C(=O)Nc1ccncc1 [Compound A32, 3-{4-[6-Amino-5-(pyridin-4-ylcarbamoyl)-pyridin-3-yl]-phenyl}-propionic acid] | 600 | 250 |
| Nc1ncc(-c2cn[nH]c2)cc1C(=O)Nc1ccncc1 [Compound A34, 2-Amino-5-(1H-pyrazol-4-yl)-N-pyridin-4-yl-nicotinamide] | 740 | 280 |
| COCCn1cc(-c2cnc(N)c(C(=O)Nc3ccncc3Cl)c2)cn1 [Compound A38, 2-Amino-N-(3-chloro-pyridin-4-yl)-5-[1-(2-methoxy-ethyl-)-1H-pyrazol-4-yl]nicotinamide] | 1500 | 740 |
| Nc1ncc(-c2cnn(CCO)c2)cc1C(=O)Nc1ccncc1 [Compound A42, 2-Amino-5-[1-(2-hydroxy-ethyl)-1H-pyrazol-4-yl]-N-pyridin-4-yl-nicotinamide] | 1700 | 670 |
| CC(=O)c1c[nH]c(-c2cnc(N)c(C(=O)Nc3ccncc3)c2)c1 [Compound A44, 5-(4-Acetyl-1H-pyrrol-2-yl)-2-amino-N-pyridin-4-yl-nicotinamide] | 420 | 240 |
| Cn1cccc1-c1cnc(N)c(C(=O)Nc2ccncc2)c1 [Compound A50, 2-Amino-5-(1-methyl-1H-pyrrol-2-yl)-N-pyridin-4-yl-nicotinamide] | – | 320 |
| Nc1ncc(-c2cc3ccccc3s2)cc1C(=O)Nc1ccncc1 [Compound A52, 2-Amino-5-benzo[b]thiophen-2-yl-N-pyridin-4-yl-nicotinamide] | – | 630 |
| Nc1ncc(-c2cc3ccccc3[nH]2)cc1C(=O)Nc1ccncc1 [Compound A55, 2-Amino-5-(1H-indol-2-yl)-N-pyridin-4-yl-nicotinamide] | – | 390 |

Results, then the molecule that gave them:

| IC50 (IKKε) [nM] | IC50 [1] [nM] | Structure (SMILES) |
| --- | --- | --- |
| 110 | 130 | Nc1ncc(-c2ccc(CN3CCCC3)s2)cc1C(=O)Nc1ccncc1 [Compound A2, 2-Amino-N-pyridin-4-yl-5-(5-pyrrolidin-1-ylmethyl-thiophen-2-yl)-nicotinamide] |
| 150 | 120 | Cc1ccc(-c2cnc(N)c(C(=O)Nc3ccncc3)c2)s1 [Compound A3, 2-Amino-5-(5-methyl-thiophen-2-yl)-N-pyridin-4-yl-nicotinamide] |
| – | 1000 | Nc1ncc(-c2ccc(CN3CCOCC3)s2)nc1C(=O)Nc1ccncc1 [Compound A10, 3-Amino-6-(5-morpholin-4-ylmethyl-thiophen-2-yl)-pyrazine-2-carboxylic acid pyridin-4-ylamide] |
| 1900 | 4200 | Nc1ncc(-c2ccc(CN3CCCC3)s2)nc1C(=O)Nc1ccncc1 [Compound A14, 3-Amino-6-(5-pyrrolidin-1-ylmethyl-thiophen-2-yl)-pyrazine-2-carboxylic acid pyridin-4-ylamide] |
| 2000 | 670 | Cc1cc(NC(=O)c2cc(-c3csc(CN4CCOCC4)c3)cnc2N)ccn1 [Compound A15, 2-Amino-N-(2-methyl-pyridin-4-yl)-5-(5-morpholin-4-ylmethyl-thiophen-3-yl)-nicotinamide] |
| 5200 | 8200 | Cc1cc(NC(=O)c2cc(-c3ccc(CN4CCOCC4)s3)cnc2N)cc(C)n1 [Compound A26, 2-Amino-N-(2,6-dimethyl-pyridin-4-yl)-5-(5-morpholin-4-ylmethyl-thiophen-2-yl)-nicotinamide] |
| 2600 | 810 | Nc1ncc(-c2ccc(CN3CCOCC3)s2)cc1C(=O)Nc1ccncn1 [Compound A27, 2-Amino-5-(5-morpholin-4-ylmethyl-thiophen-2-yl)-N-pyrimidin-4-yl-nicotinamide] |
| 2400 | 890 | Nc1ncc(-c2ccc(CN3CCOCC3)s2)cc1C(=O)Nc1ccnc2ccoc12 [Compound A29, 2-Amino-N-furo[3,2-b]pyridin-7-yl-5-(5-morpholin-4-ylmethyl-thiophen-2-yl)-nicotinamide] |
| 600 | 250 | Nc1ncc(-c2ccc(CN3CCOCC3)s2)cc1C(=O)Nc1ccncc1Cl [Compound A33, 2-Amino-N-(3-chloro-pyridin-4-yl)-5-(5-morpholin-4-ylmethyl-thiophen-2-yl)-nicotinamide] |
| – | 450 | COC(=O)c1cnccc1NC(=O)c1cc(-c2ccc(CN3CCOCC3)s2)cnc1N [Compound A35, 4-{[2-Amino-5-(5-morpholin-4-ylmethyl-thiophen-2-yl)-pyridine-3-carbonyl]-amino}-nicotinic acid methyl ester] |
| 540 | 190 | CC(=O)Nc1cc(NC(=O)c2cc(-c3ccc(CN4CCOCC4)s3)cnc2N)ccn1 [Compound A36, N-(2-Acetylamino-pyridin-4-yl)-2-amino-5-(5-morpholin-4-ylmethyl-thiophen-2-yl)-nicotinamide] |
| 390 | 910 | COc1ccc(NC(=O)c2cc(-c3ccc(CN4CCOCC4)s3)cnc2N)cc1 [Compound A39, 2-Amino-N-(4-methoxy-phenyl)-5-(5-morpholin-4-ylmethyl-thiophen-2-yl)-nicotinamide] |
| 330 | 140 | Nc1ncc(-c2csc(CN3CCOCC3)c2)cc1C(=O)Nc1ccncc1 [Compound A43, 2-Amino-5-(5-morpholin-4-ylmethyl-thiophen-3-yl)-N-pyridin-4-yl-nicotinamide] |
